# In patent US8367873B2, “Phenyl-substituted bicyclooctane-1,3-dione derivatives” (Bayer Cropscience AG, priority 2008, dated 2013):
# Tests used:
# Assay type in all cases: in vivo
# [1] = system: Setaria viridis; assay: Herbicidal post-emergence action; settings: post-emergence method, 80 g/ha
# Outline: (§1)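 Greenhouse plants in sandy loam sprayed at the one-leaf stage, 2-3 weeks after sowing, with WP-formulated compound at varied rates in 600 l/ha water plus 0.2% wetting agent. Damage scored visually after about three weeks as percent effect versus untreated controls (100% = dead).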
# [2] = system: Alopecurus myosuroides; assay: Herbicidal post-emergence action; settings: post-emergence method, 80 g/ha
# Outline: as §1
# [3] = system: Lolium multiflorum; assay: Herbicidal post-emergence action; settings: post-emergence method, 80 g/ha
# Outline: as §1
# [4] = system: Echinocloa crus-galli; assay: Herbicidal post-emergence action; settings: post-emergence method, 80 g/ha
# Outline: as §1
# [5] = system: monocotylidonous and dicotylidonous weed and crop plants; assay: Herbicidal pre-emergence action (other test plants); settings: pre-emergence method, 80 g/ha, greenhouse, visual assessment vs untreated controls
# Outline: (§2)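 Visual percent effect relative to untreated controls (0% = like control, 100% = dead) assessed three weeks after treatment in the greenhouse. Compounds, as wettable powders in water (600 l/ha, 0.2% wetting agent), were sprayed at different amounts onto covering soil over seeds sown in sandy loam.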
# [6] = system: Setaria viridis; assay: Herbicidal pre-emergence action; settings: pre-emergence method, 80 g/ha, greenhouse, visual assessment vs untreated controls
# Outline: as §2
# [7] = system: Alopecurus myosuroides; assay: Herbicidal pre-emergence action; settings: pre-emergence method, 80 g/ha, greenhouse, visual assessment vs untreated controls
# Outline: as §2
# [8] = system: Lolium multiflorum; assay: Herbicidal pre-emergence action; settings: pre-emergence method, 80 g/ha, greenhouse, visual assessment vs untreated controls
# Outline: as §2
# [9] = system: Echinocloa crus-galli; assay: Herbicidal pre-emergence action; settings: pre-emergence method, 80 g/ha, greenhouse, visual assessment vs untreated controls
# Outline: as §2
# [10] = system: monocotylidonous and dicotylidonous weed and crop plants; assay: Herbicidal post-emergence action (other test plants); settings: post-emergence method, 80 g/ha
# Outline: as §1
structure (smiles),measurement,setting,value
CCc1cc(C)cc(CC)c1C1=C(O)[C@H]2CC3(C[C@H]2C1=O)OCC(OCc1ccccc1)CO3 (relative stereo) [I-a-27],herbicidal effect against SETVI (Setaria viridis),[1],90%
same,herbicidal effect against ALOMY (Alopecurus myosuroides),[2],100%
same,herbicidal effect against LOLMU (Lolium multiflorum),[3],100%
same,herbicidal effect against ECHCG (Echinochloa crus-galli),[4],100%
same,herbicidal effect AVEFA,[5],80%
same,herbicidal effect SETVI,[6],90%
same,herbicidal effect ALOMY,[7],90%
same,herbicidal effect LOLMU,[8],100%
same,herbicidal effect ECHCG,[9],100%
same,herbicidal effect against AVEFA (Avena fatua),[10],100%
Cc1cc(C)c(C2=C(OC(=O)C(C)(C)C)C3CC4(CC3C2=O)OCCCCO4)c(C)c1 (centres unmarked) [I-b-40],herbicidal effect against SETVI (Setaria viridis),[1],80%
same,herbicidal effect against ALOMY (Alopecurus myosuroides),[2],40%
same,herbicidal effect against LOLMU (Lolium multiflorum),[3],100%
same,herbicidal effect against ECHCG (Echinochloa crus-galli),[4],90%
same,herbicidal effect AVEFA,[5],50%
same,herbicidal effect SETVI,[6],30%
same,herbicidal effect ALOMY,[7],90%
same,herbicidal effect LOLMU,[8],100%
same,herbicidal effect ECHCG,[9],50%
same,herbicidal effect against AVEFA (Avena fatua),[10],20%
CCc1cc(C)cc(CC)c1C1=C(O)C2CC3(COC(C)O3)CC2C1=O (mixture of isomers) [I-a-7],herbicidal effect against SETVI (Setaria viridis),[1],90%
same,herbicidal effect against ALOMY (Alopecurus myosuroides),[2],90%
same,herbicidal effect against LOLMU (Lolium multiflorum),[3],100%
same,herbicidal effect against ECHCG (Echinochloa crus-galli),[4],100%
same,herbicidal effect AVEFA,[5],80%
same,herbicidal effect SETVI,[6],70%
same,herbicidal effect ALOMY,[7],100%
same,herbicidal effect LOLMU,[8],90%
same,herbicidal effect ECHCG,[9],70%
same,herbicidal effect against AVEFA (Avena fatua),[10],60%
CCc1cc(C)cc(CC)c1C1=C(OC(C)=O)C2CC3(CC2C1=O)OCCCO3 (centres unmarked) [I-b-23],herbicidal effect against SETVI (Setaria viridis),[1],100%
same,herbicidal effect against ALOMY (Alopecurus myosuroides),[2],100%
same,herbicidal effect against LOLMU (Lolium multiflorum),[3],100%
same,herbicidal effect against ECHCG (Echinochloa crus-galli),[4],100%
same,herbicidal effect AVEFA,[5],70%
same,herbicidal effect SETVI,[6],50%
same,herbicidal effect ALOMY,[7],90%
same,herbicidal effect LOLMU,[8],100%
same,herbicidal effect ECHCG,[9],100%
same,herbicidal effect against AVEFA (Avena fatua),[10],100%
CCOC(=O)OC1=C(c2c(C)cc(C)cc2OC)C(=O)C2CC3(CC12)OCCO3 (racemic) [I-c-64],herbicidal effect against SETVI (Setaria viridis),[1],100%
same,herbicidal effect against ALOMY (Alopecurus myosuroides),[2],80%
same,herbicidal effect against LOLMU (Lolium multiflorum),[3],100%
same,herbicidal effect against ECHCG (Echinochloa crus-galli),[4],100%
same,herbicidal effect AVEFA,[5],70%
same,herbicidal effect SETVI,[6],70%
same,herbicidal effect ALOMY,[7],60%
same,herbicidal effect LOLMU,[8],100%
same,herbicidal effect ECHCG,[9],50%
same,herbicidal effect against AVEFA (Avena fatua),[10],80%
CCc1cc(C)cc(CC)c1C1=C(O)C2CC3(CC2C1=O)OC(C)CC(C)O3 (mixture of isomers) [I-a-12],herbicidal effect against SETVI (Setaria viridis),[1],100%
same,herbicidal effect against ALOMY (Alopecurus myosuroides),[2],100%
same,herbicidal effect against LOLMU (Lolium multiflorum),[3],100%
same,herbicidal effect against ECHCG (Echinochloa crus-galli),[4],100%
same,herbicidal effect AVEFA,[5],80%
same,herbicidal effect SETVI,[6],90%
same,herbicidal effect ALOMY,[7],100%
same,herbicidal effect LOLMU,[8],100%
same,herbicidal effect ECHCG,[9],100%
same,herbicidal effect against AVEFA (Avena fatua),[10],100%
CCc1cc(C)cc(C)c1C1=C(OC(=O)C(C)C)C2CC3(CC2C1=O)OCCO3 (centres unmarked) [I-b-79],herbicidal effect against SETVI (Setaria viridis),[1],100%
same,herbicidal effect against ALOMY (Alopecurus myosuroides),[2],90%
same,herbicidal effect against LOLMU (Lolium multiflorum),[3],100%
same,herbicidal effect against ECHCG (Echinochloa crus-galli),[4],100%
same,herbicidal effect AVEFA,[5],70%
same,herbicidal effect SETVI,[6],80%
same,herbicidal effect ALOMY,[7],70%
same,herbicidal effect LOLMU,[8],100%
same,herbicidal effect ECHCG,[9],100%
same,herbicidal effect against AVEFA (Avena fatua),[10],100%
C#CC(C)ON=C1CC2C(=O)C(c3c(CC)cc(C)cc3CC)=C(OC(=O)OCC)C2C1 (centres unmarked) [I-c-43],herbicidal effect against SETVI (Setaria viridis),[1],0%
same,herbicidal effect against ALOMY (Alopecurus myosuroides),[2],100%
same,herbicidal effect against LOLMU (Lolium multiflorum),[3],100%
same,herbicidal effect against ECHCG (Echinochloa crus-galli),[4],100%
same,herbicidal effect AVEFA,[5],40%
same,herbicidal effect SETVI,[6],0%
same,herbicidal effect ALOMY,[7],80%
same,herbicidal effect LOLMU,[8],80%
same,herbicidal effect ECHCG,[9],80%
same,herbicidal effect against AVEFA (Avena fatua),[10],0%
CCc1cc(C)cc(CC)c1C1=C(OC(=O)OC)C2CC3(CC2C1=O)OCCS3 (mixture of isomers) [I-c-31],herbicidal effect against SETVI (Setaria viridis),[1],90%
same,herbicidal effect against ALOMY (Alopecurus myosuroides),[2],70%
same,herbicidal effect against LOLMU (Lolium multiflorum),[3],100%
same,herbicidal effect against ECHCG (Echinochloa crus-galli),[4],100%
same,herbicidal effect AVEFA,[5],80%
same,herbicidal effect SETVI,[6],60%
same,herbicidal effect ALOMY,[7],90%
same,herbicidal effect LOLMU,[8],0%
same,herbicidal effect ECHCG,[9],60%
same,herbicidal effect against AVEFA (Avena fatua),[10],90%
CCOC1COC2(CC3C(=O)C(c4c(CC)cc(C)cc4CC)=C(OC(=O)C(C)C)C3C2)OC1 (centres unmarked) [I-b-16],herbicidal effect against SETVI (Setaria viridis),[1],100%
same,herbicidal effect against ALOMY (Alopecurus myosuroides),[2],100%
same,herbicidal effect against LOLMU (Lolium multiflorum),[3],100%
same,herbicidal effect against ECHCG (Echinochloa crus-galli),[4],100%
same,herbicidal effect AVEFA,[5],80%
same,herbicidal effect SETVI,[6],100%
same,herbicidal effect ALOMY,[7],100%
same,herbicidal effect LOLMU,[8],100%
same,herbicidal effect ECHCG,[9],100%
same,herbicidal effect against AVEFA (Avena fatua),[10],90%
CCc1cc(C)cc(CC)c1C1=C(OC(=O)C(C)(C)CCl)C2CC3(CC2C1=O)OCCCO3 (centres unmarked) [I-b-25],herbicidal effect against SETVI (Setaria viridis),[1],100%
same,herbicidal effect against ALOMY (Alopecurus myosuroides),[2],100%
same,herbicidal effect against LOLMU (Lolium multiflorum),[3],100%
same,herbicidal effect against ECHCG (Echinochloa crus-galli),[4],100%
same,herbicidal effect AVEFA,[5],70%
same,herbicidal effect SETVI,[6],60%
same,herbicidal effect ALOMY,[7],90%
same,herbicidal effect LOLMU,[8],100%
same,herbicidal effect ECHCG,[9],100%
same,herbicidal effect against AVEFA (Avena fatua),[10],100%
C=C1CC2C(=O)C(c3c(C)cc(C)cc3CC)=C(OC(=O)OCC)C2C1 (racemic) [I-c-76],herbicidal effect against SETVI (Setaria viridis),[1],100%
same,herbicidal effect against ALOMY (Alopecurus myosuroides),[2],10%
same,herbicidal effect against LOLMU (Lolium multiflorum),[3],90%
same,herbicidal effect against ECHCG (Echinochloa crus-galli),[4],100%
same,herbicidal effect AVEFA,[5],20%
same,herbicidal effect SETVI,[6],90%
same,herbicidal effect ALOMY,[7],80%
same,herbicidal effect LOLMU,[8],90%
same,herbicidal effect ECHCG,[9],100%
same,herbicidal effect against AVEFA (Avena fatua),[10],0%
C=C1CC2C(=O)C(c3c(C)cc(C)cc3C)=C(OC(=O)OCC)C2C1 (racemic) [I-c-45],herbicidal effect against SETVI (Setaria viridis),[1],90%
same,herbicidal effect against ALOMY (Alopecurus myosuroides),[2],40%
same,herbicidal effect against LOLMU (Lolium multiflorum),[3],100%
same,herbicidal effect against ECHCG (Echinochloa crus-galli),[4],90%
same,herbicidal effect AVEFA,[5],80%
same,herbicidal effect SETVI,[6],80%
same,herbicidal effect ALOMY,[7],60%
same,herbicidal effect LOLMU,[8],80%
same,herbicidal effect ECHCG,[9],80%
same,herbicidal effect against AVEFA (Avena fatua),[10],0%
CCc1cc(C)cc(C)c1C1=C(O)C2CC3(CC2C1=O)OCCO3 (centres unmarked) [I-a-57],herbicidal effect against SETVI (Setaria viridis),[1],100%
same,herbicidal effect against ALOMY (Alopecurus myosuroides),[2],100%
same,herbicidal effect against LOLMU (Lolium multiflorum),[3],100%
same,herbicidal effect against ECHCG (Echinochloa crus-galli),[4],100%
same,herbicidal effect AVEFA,[5],60%
same,herbicidal effect SETVI,[6],90%
same,herbicidal effect ALOMY,[7],80%
same,herbicidal effect LOLMU,[8],100%
same,herbicidal effect ECHCG,[9],100%
same,herbicidal effect against AVEFA (Avena fatua),[10],100%
